The test system of experiment [1] is duplex-form calf thymus DNA (CT-DNA). Briefly: Thermal denaturation studies with CT-DNA. Format: binding. The conditions noted are these: for ΔTm after incubation at 37° C. for 0 h / ΔTm after incubation at 37° C. for 18 h / ΔTm after incubation at 37° C. for 36 h: [PBD]:[DNA] 1:5, CT-DNA 100 μM, ligand 20 μM; for ΔTm after incubation at 37° C. for 0 h: pH 7.00, 0 h; for ΔTm after incubation at 37° C. for 18 h: pH 7.00, 18 h; for ΔTm after incubation at 37° C. for 36 h: pH 7.00, 36 h; for course of ΔTm over 0 hr, 18 hr and 36 hr (in words): incubation at 37° C. The protocol: Compounds were subjected to thermal denaturation studies with duplex-form calf thymus DNA (CT-DNA) using an adaptation of a reported procedure. Working solutions in aqueous buffer (10 mM NaH2PO4/Na2HPO4, 1 mM Na2EDTA, pH 7.00+0.01) containing CT-DNA (100 μm in phosphate) and the PBD (20 μm) were prepared by addition of concentrated PBD solutions in DMSO to obtain a fixed [PBD]/[DNA] molar ratio of 1:5. The DNA-PBD solutions were incubated at 37° C. for 0, 18, and 36 h prior to analysis. Samples were monitored at 260 nm using a Beckman DU-7400 spectrophotometer fitted with high performance temperature controller, and heating was applied at 1° C. min−1 in the 40-90° C. range. DNA helix coil transition temperatures (Tm) were obtained from the maxima in the (dA260)/dT derivative plots. Results are given as the mean ±standard deviation from three determinations and are corrected for the effects of DMSO co-solvent using a linear correction term. Drug-induced alterations in DNA melting behaviour are given by: ΔTm=Tm(DNA+PBD)−Tm (DNA alone), where the Tm value for the PBD-free CT-DNA is 69.0±0.01.

Another experiment concerns Zr-75-1 (breast). Briefly: In vitro cytotoxicity, 48 h continuous drug exposure. It counts as cell-based, human. The conditions noted are these: Zr-75-1, Breast. The protocol: (§1) In vitro evaluation of cytotoxic activity. The compound 5a, 5b, 5g, 5i and 5j were evaluated for in vitro anticancer activity against nine human tumour cells derived from six cancer types (colon, prostate, oral, lung, cervix and breast cancer) as shown in Table 3. […] Compounds 5a, 5b, 5g, 5i and 5j have been evaluated for their in vitro cytotoxicity in selected human cancer cell lines of colon (Colo205), lung (Hop-62), cervix (SiHa), prostate (DU145, PC3), oral (DWD, HT1080), and breast (MCF7, Zr-75-1) origin. A protocol of 48 h continuous drug exposure has been used and an […] has been used to estimate cell viability or growth. […] Compound 5a, Colo205 cell growth by 83%, DU145 cell growth by 84%, DWD cell growth by 70%, Hop62 cell growth by 87%, HT1080 cell growth by 80%, MCF7 cell growth by 73%, PC3 cell growth by 91%, SiHa cell growth by 67%, Zr-75-1 cell growth by 76%. Compound 5b, Colo205 cell growth by 20%, DU145 cell growth by 64%, DWD cell growth by 70%, Hop62 cell growth by 78%, HT1080 cell growth by 72%, MCF7 cell growth by 69%, PC3 cell growth by 72%, SiHa cell growth by 20%, Zr-75-1 cell growth by 20%. Compound 5g, Colo205 cell growth by 50%, DU145 cell growth by 20%, DWD cell growth by 94%, Hop62 cell growth by 84%, HT1080 cell growth by 94%, MCF7 cell growth by 71%, PC3 cell growth by 86%, SiHa cell growth by 74%, Zr-75-1 cell growth by 72%. Compound 5i, DU145 cell growth by 42%, Hop62 cell growth by 60%, HT1080 cell growth by 70%, Compound 5j, Colo205 cell growth by 44%, DU145 cell growth by 57%, DWD cell growth by 65%, Hop62 cell growth by 53%, HT1080 cell growth by 71%, PC3 cell growth by 81%, SiHa cell growth by 77%.

For another experiment, the system named is PC3 (prostate). The description is as above. Format: cell-based, human. The protocol:
as §1

Another experiment concerns HT1080 (oral). Described as above. It counts as cell-based, human. The conditions noted are these: for Activity status in terms of IC50 value: HT1080, Oral; for cell growth by %: HT1080, relative to untreated control cells. The protocol: as §1
In the next experiment the test system is DWD (oral). The description is as above. It counts as cell-based, human. The protocol: as §1
A further experiment has as its system DU145 (prostate). Described as above. The conditions noted are these: for Activity status in terms of IC50 value: DU145, Prostate; for cell growth by %: DU145, relative to untreated control cells. It counts as cell-based, human. The protocol:
as §1

Another experiment concerns Hop62 (lung). The description is as above. It counts as cell-based, human. The conditions noted are these: for Activity status in terms of IC50 value: Hop62, Lung; for cell growth by %: Hop62, relative to untreated control cells. The protocol: as §1
In another experiment the test system is MCF7 (breast). Described as above. It counts as cell-based, human. The conditions noted are these: MCF7, Breast. The protocol:
as §1

For the next experiment, the system named is Colo205 (colon). The description is as above. The conditions noted are these: for Activity status in terms of IC50 value: Colo205, Colon. It counts as cell-based, human. The protocol: as §1
In the next experiment the test system is SiHa (cervix). Described as above. It counts as cell-based, human. The protocol:
as §1

The mark [2] stands for this setting: relative to untreated control cells.
The mark [3] stands for this setting: Homo sapiens, read-out: Activity status in terms of IC50 value.

Values after ≈ are worked out from the molar mass of the structure shown. Some results are limits rather than exact numbers.

Here are results for 4 molecules from US7528128B2, “Pyrrolo[2,1-C][1,4]benzodiazepine hybrids and a process for the preparation thereof” (Council of Scientific & Industrial Research, priority 2006, dated 2009).

For orientation: IC50 means the midpoint of a concentration-inhibition curve.

For the molecule `COc1cc2c(cc1O)N=CC1CCCN1C2=O` (centres unmarked) [DC-81, reference compound], in [1], the “ΔTm after incubation at 37° C. for 0 h” value was found to be 0.3 °C and the “ΔTm after incubation at 37° C. for 18 h” value stood at 0.7 °C.

Take `COc1cc2c(cc1OCC(=O)Nc1ccc(Cl)cc1C(=O)c1ccccc1Cl)N=C[C@@H]1CCCN1C2=O` [Compound 5j, 7-Methoxy-8-{N1-[4-chloro-2-(2-chlorobenzoyl)phenyl]2-oxyacetamido}-(11aS)-1,2,3,11a-tetrahydro-5H-pyrrolo[2,1-c][1,4]benzodiazepine-5-one]: the “ΔTm after incubation at 37° C. for 0 h” value in experiment [1] amounted to 1.8 °C. In addition, the “ΔTm after incubation at 37° C. for 18 h” value in experiment [1] was determined as 2.0 °C. In addition, the “ΔTm after incubation at 37° C. for 36 h” value in experiment [1] amounted to 2.8 °C. Further, the “course of ΔTm over 0 hr, 18 hr and 36 hr (in words)” value in experiment [1] was “gradually increased”. For the same molecule, the “Activity status in terms of IC50 value” in the experiment on Zr-75-1 (breast) is above 80 µg/mL; with PC3 (prostate) (PC3, Prostate), 19 µg/mL; in the experiment with HT1080 (oral), 29 µg/mL; in the experiment with DWD (oral) (Oral), 35 µg/mL; with DU145 (prostate) it was 43 µg/mL; with Hop62 (lung), 47 µg/mL. Moreover, the “Activity status in terms of IC50 value” with MCF7 (breast) was 68 µg/mL; in the experiment on Colo205 (colon), 56 µg/mL; in the experiment on SiHa (cervix) (Cervix), 23 µg/mL. Also, the “cell growth by %” value is recorded as 81% with PC3 (prostate) (PC3, relative to untreated control cells); 71% with HT1080 (oral); 65% with DWD (oral) (setting [2]); 57% with DU145 (prostate); 53% in the experiment with Hop62 (lung); 44% in the experiment on Colo205 (colon) (Colo205, relative to untreated control cells). Also, the “cell growth by %” value in the experiment on SiHa (cervix) (setting [2]) was found to be 77%.

Consider `COc1cccc2c1C(=O)c1c(O)c3c(c(O)c1C2=O)C[C@@](O)(C(=O)CO)C[C@@H]3O[C@H]1C[C@H](N)[C@H](O)[C@H](C)O1` [ADR, Adriamycin, reference compound], for which the IC50 was 5 µg/mL (≈ 9.2 µM) in the experiment on Zr-75-1 (breast) (setting [3]); 5 µg/mL (≈ 9.2 µM) with PC3 (prostate) (Homo sapiens, PC3, Prostate, read-out: Activity status in terms of IC50 value); 4 µg/mL (≈ 7.36 µM) in the experiment with HT1080 (oral) (Homo sapiens, HT-1080, HT1080, Oral, read-out: Activity status in terms of IC50 value); 2 µg/mL (≈ 3.68 µM) in the experiment on DWD (oral) (Homo sapiens, Oral, read-out: Activity status in terms of IC50 value); 6 µg/mL (≈ 11 µM) in the experiment with DU145 (prostate) (Homo sapiens, DU-145, DU145, Prostate, read-out: Activity status in terms of IC50 value); 5 µg/mL (≈ 9.2 µM) with Hop62 (lung) (Homo sapiens, HOP-62, Hop62, Lung, read-out: Activity status in terms of IC50 value). Also, the IC50 is 5 µg/mL (≈ 9.2 µM) with MCF7 (breast) (setting [3]); 5 µg/mL (≈ 9.2 µM) in the experiment with Colo205 (colon) (Homo sapiens, COLO 205, Colo205, Colon, read-out: Activity status in terms of IC50 value); 5 µg/mL (≈ 9.2 µM) with SiHa (cervix) (Homo sapiens, Cervix, read-out: Activity status in terms of IC50 value).

For the molecule `COc1cc2c(cc1OCCCCCCOc1c(Cl)cc(Cl)cc1C(=O)c1ccccc1)N=C[C@@H]1CCCN1C2=O` [Compound 5i, 7-methoxy-8-{3-[2-benzoyl-(4,6-di-chlorophenyloxy)hexyloxy]}-(11aS)-1,2,3,11a-tetrahydro-5H-pyrrolo[2,1-c][1,4]benzodiazepine-5-one], in experiment [1], the “ΔTm after incubation at 37° C. for 0 h” value is 1.5 °C. In addition, in [1], the “ΔTm after incubation at 37° C. for 18 h” value stood at 1.9 °C. The “ΔTm after incubation at 37° C. for 36 h” value in experiment [1] is 2.6 °C. For the same molecule, the “course of ΔTm over 0 hr, 18 hr and 36 hr (in words)” value in experiment [1] is “gradually increased”. Besides, the “Activity status in terms of IC50 value” is above 80 µg/mL in the experiment with Zr-75-1 (breast); above 80 µg/mL in the experiment on PC3 (prostate) (PC3, Prostate); 30 µg/mL with HT1080 (oral); above 80 µg/mL in the experiment with DWD (oral) (Oral); 58 µg/mL with DU145 (prostate); 40 µg/mL with Hop62 (lung). Moreover, the “Activity status in terms of IC50 value” in the experiment on MCF7 (breast), in the experiment with Colo205 (colon) and in the experiment on SiHa (cervix) (Cervix) was above 80 µg/mL throughout. Also, the “cell growth by %” value is 70% in the experiment with HT1080 (oral), 42% with DU145 (prostate) and 60% in the experiment with Hop62 (lung).
